Where a name gives a salt, the structure may show the parent alone. Read-outs that look alike come from different tables or passages of the source.
Key:
physchem = conditions: for half-life / Half-Life in Neutral Water at 100° C.: buffer; for hydrolysis rate / reaction rate (comparison in words): deionized water
Experimental: In the following examples, various ester hydrolysis reactions were run in the presence of calcium carbonate (CaCO3) to simulate the consumption of filter cake material. The acid evolved in each reaction was measured per unit of time. The acid generated upon hydrolysis was rapidly consumed in a secondary reaction that produced carbon dioxide (CO2). The half-life was secured when half of the CaCO3 was consumed. That is, using PV=nRT, the amount of CaCO3 that would yield approximately 1 liter of CO2 was calculated to be about 4.47 grams. We doubled the amount of CaCO3 (8.94 grams) for the reactions and then calculated the half-life based on the yield of 1 liter of CO2. Unless otherwise specified, all half-life quotations are actually the time required for 4.47 grams of CaCO3 to be consumed.
The following general procedure was used in each of the examples. The closed system reactor shown in FIG. 1 was used to measure the amount of CO2 gas that evolved in each reaction. Water or brine was added to a boiling flask 10, which was heated to 100° C. […] Once the liquid was boiling, a weighed amount of ester was added to flask 10. The amount of ester employed was always in ratio to the water or to the make-up water used to formulate the brine except where commercially available brines were used. Following addition of the ester to the boiling liquid, a reflux condenser 12 was affixed to flask 10. The top of condenser 12 was fixed with an adapter 14 to an inlet tube 18 in a 2-hole rubber stopper 16. The inlet tube 18 was passed through stopper 16, providing a seal. An outlet tube 22 was run from the bottom of a flask 20 to a 1,000 mL graduated cylinder 24. The flask 20 was charged with XP-07 base oil, commercially available from Halliburton Energy Services, Inc. The outlet tube 22 served the purpose of discharging the oil into graduated cylinder 24. The hydrolysis reaction produced acid in flask 10 that reacted with the CaCO3 to produce CO2 gas. The gas displaced the oil in flask 20 into graduated cylinder 24. The rate of CO2 evolution thus could be monitored visually by reading of the amount of oil in graduated cylinder 24 per unit of time.
Solutions containing various esters of lactic acid and of glycerol (i.e., monoacetin, ethyl lactate, triacetin, tripropionin), butyl formate (a control), and BDF-325 diethyleneglycol diformate (a control) in neutral water were prepared and combined with a molar ratio of CaCO3. Hydrolysis reactions were then carried out using the resulting solutions at 100° C. The hydrolysis reactions were monitored, and the half-lives of the esters were compared. The volume of oil displaced by the CO2 gas is plotted as a function of time in FIG. 2. […] The butyl formate to CaCO3 molar ratio was doubled for comparison purposes.
Solutions containing 10 volume % monoacetin, diacetin, and triacetin in deionized water were prepared and combined with a molar ratio of CaCO3. Hydrolysis reactions were then carried out using the resulting solutions at 100° C. The hydrolysis reactions were monitored, and the half-lives of the esters were compared. The volume of oil displaced by the CO2 gas is plotted as a function of time in FIG. 3.

[1] = at 100° C.; cited from earlier work
Solubility in water = format: physicochemical
[2] = Half-Life in Neutral Water at 100° C.
[3] = hydrolysis in neutral water at 100° C.

Compound	half-life (physchem; [2])	Pseudo First Order Rate Constant (physchem; [3])	hydrolysis rate / reaction rate (comparison in words) (physchem; 100° C.)	other results
CCOC(=O)C(C)O (centres unmarked) [Ethyl Lactate]	8.71 h	2.2 × 10^−5 sec.^−1	–	hydrolysis in deionized water and various brines (physchem; 10 volume % in deionized water and various brines, 100° C.): performed consistently; half-life (physchem; half-life): 10 to 11 h
CC(=O)O [acetic acid]	–	–	–	strength of the acid (pH) [1]: 4.76
CCC(=O)OCC(COC(=O)CC)OC(=O)CC [Tripropionin]	–	–	–	Pseudo First Order Rate Constant (physchem): 1.05 × 10^−5 sec.^−1; Half-Life in Neutral Water at 100° C. (physchem): 32,344.83 seconds
CCCCOC(=O)C(C)O (centres unmarked) [Butyl lactate]	21.3 h	9.03 × 10^−6 sec.^−1	faster than that of the butyl formate	solubility in water (Solubility in water): slightly soluble
O=COCCOCCOC=O [diethyleneglycol diformate, reference compound]	–	–	–	half-life (physchem; half-life): 0.3 to 0.333 h
CC(=O)OCC(O)COC(C)=O [Diacetin]	–	4.75 × 10^−5 sec.^−1	very similar	Half-Life in Neutral Water at 100° C. (physchem): 14,600 seconds

Continued, in another order:

half-life (physchem; [2])	Pseudo First Order Rate Constant (physchem; [3])	hydrolysis rate / reaction rate (comparison in words) (physchem; 100° C.)	Compound	other results
2.71 h	2.1 × 10^−5 sec.^−1	–	COC(=O)C(C)O (centres unmarked) [Methyl lactate]	–
2.73 h	7.04 × 10^−5 sec.^−1	very similar	CC(=O)OCC(COC(C)=O)OC(C)=O [Triacetin]	–
–	–	slow reaction rate	CCCCOC=O [butyl formate, reference compound]	solubility in water (Solubility in water): poor solubility
25.8 h	7.4 × 10^−6 sec.^−1	–	CCCOC(=O)C(C)O (centres unmarked) [Propyl lactate]	–
–	1.8 × 10^−5 sec.^−1	–	CC(=O)OCC(O)CO (centres unmarked) [Monoacetin]	half-life versus targeted range (greater than 10 hours at 100° C. desired) (physchem; 10 volume % in deionized water, 100° C.): within the targeted range; consumed more slowly relative to the other two acetins (physchem; 10 volume % in deionized water, 100° C., vs triacetin and diacetin): 4-5 times; Half-Life in Neutral Water at 100° C. (physchem): 38,400 seconds

From patent US20070173416A1, “Well treatment compositions for use in acidizing a well” (Halliburton Energy Services, Inc., priority 2006, published 2007)
